Laboratory results as given in US6242437A, “Cephem derivatives” (Meiji Seika Kaisha, Ltd., priority 1996, dated 2001).
Converted amounts (≈) assume the structure as drawn. Structures can show the parent of a compound that is named as a salt.

Assays:
Assay in all cases: Minimum inhibitory concentration, two-fold dilution method
Assay type in all cases: cell-based
E. cloacae G-0008 = settings: Enterobacter cloacae, G0008, 10^6 CFU/ml, 35° C., 18 to 20 hr
Description: (§1) The antibacterial activity of the compounds according to the present invention was assayed in terms of the minimum inhibitory concentration, for various bacteria, measured by the conventional two-fold dilution method described in, for example, CHEMOTHERAPY, Vol. 29, No. 1, 76-79 (1981). The measurement was carried out in the following manner: 10^6 CFU/ml of a bacterium to be tested was inoculated on a Medium N for disc susceptibility test (manufactured by Nissui Pharmaceutical Co., Ltd.) and cultivated at 35° C. for 18 to 20 hr.
(§2) The test compounds were the compounds prepared in Examples 4 and 5, Cefozopran (CZOP, control 1), Cefpirome (CPR, control 2), the compound prepared in Example 66 (control 3) described in WO 95/07912.

S. aureus 209P JC-1 = settings: Staphylococcus aureus, 10^6 CFU/ml, 35° C., 18 to 20 hr
Description: as §1, §2

S. aureus 126 = settings: Staphylococcus aureus; S. aureus 126, methicilline-resistant (MRSA); 10^6 CFU/ml, 35° C., 18 to 20 hr
Description: as §1, §2

S. epidermidis ATCC14990 = settings: Staphylococcus epidermidis, 10^6 CFU/ml, 35° C., 18 to 20 hr
Description: as §1, §2

P. aeruginosa E-2 = settings: Pseudomonas aeruginosa, E2, 10^6 CFU/ml, 35° C., 18 to 20 hr
Description: as §1, §2

M. morganii 1510/S-1 = settings: Morganella morganii, 1510/S1, 10^6 CFU/ml, 35° C., 18 to 20 hr
Description: as §1, §2

K. pneumoniae PCI602 = settings: Klebsiella pneumoniae, 10^6 CFU/ml, 35° C., 18 to 20 hr
Description: as §1, §2

S. pneumoniae IP692 = settings: Streptococcus pneumoniae, 10^6 CFU/ml, 35° C., 18 to 20 hr
Description: as §1, §2

P. aeruginosa PA01 = settings: Pseudomonas aeruginosa; P. aeruginosa PA01, Imipenem- and Aztreonam-resistant; 10^6 CFU/ml, 35° C., 18 to 20 hr
Description: as §1, §2

C. freundii GN346/16 = settings: Citrobacter freundii, 10^6 CFU/ml, 35° C., 18 to 20 hr
Description: as §1, §2

S. pneumoniae PRC9 = settings: Streptococcus pneumoniae; S. pneumoniae PRC9, penicillin-resistant (PRSP); 10^6 CFU/ml, 35° C., 18 to 20 hr
Description: as §1, §2

E. coli NIHJ JC-2 = settings: Escherichia coli, NIHJJC2, 10^6 CFU/ml, 35° C., 18 to 20 hr
Description: as §1, §2

P. aeruginosa GN10362 = settings: Pseudomonas aeruginosa, 10^6 CFU/ml, 35° C., 18 to 20 hr
Description: as §1, §2

S. marcescens No. 1 = settings: Serratia marcescens, 10^6 CFU/ml, 35° C., 18 to 20 hr
Description: as §1, §2

S. pneumoniae JPR9 = settings: Streptococcus pneumoniae; S. pneumoniae JPR9, penicillin-resistant (PRSP); 10^6 CFU/ml, 35° C., 18 to 20 hr
Description: as §1, §2

S. pneumoniae JPR20 = settings: Streptococcus pneumoniae; S. pneumoniae JPR20, penicillin-resistant (PRSP); 10^6 CFU/ml, 35° C., 18 to 20 hr
Description: as §1, §2

| MIC (E. cloacae G-0008) | MIC (S. aureus 209P JC-1) | MIC (S. aureus 126) | MIC (S. epidermidis ATCC14990) | MIC (P. aeruginosa E-2) | MIC (M. morganii 1510/S-1) | MIC (K. pneumoniae PCI602) | MIC (S. pneumoniae IP692) | MIC (P. aeruginosa PA01) | MIC (C. freundii GN346/16) | MIC (S. pneumoniae PRC9) | MIC (E. coli NIHJ JC-2) | MIC (P. aeruginosa GN10362) | MIC (S. marcescens No. 1) | MIC (S. pneumoniae JPR9) | MIC (S. pneumoniae JPR20) | SMILES |
| --- | --- | --- | --- | --- | --- | --- | --- | --- | --- | --- | --- | --- | --- | --- | --- | --- |
| 0.1 µg/mL (≈ 0.194 µM) | 0.39 µg/mL (≈ 0.756 µM) | 50 µg/mL (≈ 97 µM) | 0.78 µg/mL (≈ 1.51 µM) | 0.78 µg/mL (≈ 1.51 µM) | 0.1 µg/mL (≈ 0.194 µM) | 0.1 µg/mL (≈ 0.194 µM) | 0.05 µg/mL (≈ 0.097 µM) | 12.5 µg/mL (≈ 24.2 µM) | 0.05 µg/mL (≈ 0.097 µM) | 1.56 µg/mL (≈ 3.03 µM) | 0.05 µg/mL (≈ 0.097 µM) | 0.78 µg/mL (≈ 1.51 µM) | 0.1 µg/mL (≈ 0.194 µM) |  |  | CO/N=C(\C(=O)N[C@@H]1C(=O)N2C(C(=O)[O-])=C(C[n+]3ccn4ncccc43)CS[C@H]12)c1nsc(N)n1 [Control 1, Cefozopran, reference compound] |
| 0.05 µg/mL (≈ 0.0972 µM) | 0.2 µg/mL (≈ 0.389 µM) | 50 µg/mL (≈ 97.2 µM) | 0.39 µg/mL (≈ 0.758 µM) | 3.13 µg/mL (≈ 6.08 µM) | ≤ 0.025 µg/mL | 0.05 µg/mL (≈ 0.0972 µM) | ≤ 0.025 µg/mL | 25 µg/mL (≈ 48.6 µM) | 0.05 µg/mL (≈ 0.0972 µM) | 0.78 µg/mL (≈ 1.52 µM) | 0.05 µg/mL (≈ 0.0972 µM) | 3.13 µg/mL (≈ 6.08 µM) | ≤ 0.025 µg/mL |  |  | CO/N=C(\C(=O)N[C@@H]1C(=O)N2C(C(=O)[O-])=C(C[n+]3cccc4c3CCC4)CS[C@H]12)c1csc(N)n1 [Control 2, Cefpirome, reference compound] |
| 0.05 µg/mL | 0.78 µg/mL | 6.25 µg/mL | 0.78 µg/mL | 0.78 µg/mL | ≤ 0.025 µg/mL | ≤ 0.025 µg/mL | ≤ 0.025 µg/mL | 3.13 µg/mL | ≤ 0.025 µg/mL | 0.39 µg/mL | ≤ 0.025 µg/mL | 0.39 µg/mL | 0.05 µg/mL | 0.2 µg/mL | 0.05 µg/mL | Nc1nc(/C(=N/OCF)C(=O)N[C@@H]2C(=O)N3C(C(=O)[O-])=C(C[n+]4cc5sccn5c4CNS(N)(=O)=O)CS[C@H]23)ns1 [Ex. 4, (6R,7R)-7-[(Z)-2-(5-amino-1,2,4-thiadiazol-3-yl)-2-(fluoromethoxyimino)acetamido]-3-[5-sulfamidomethylimidazo[5,1-b]thiazolium-6-yl]methyl-3-cephem-4-carboxylate (inner salt)] |
| 0.1 µg/mL | 0.78 µg/mL | 6.25 µg/mL | 0.78 µg/mL | 0.78 µg/mL | 0.05 µg/mL | 0.05 µg/mL | ≤ 0.025 µg/mL | 3.13 µg/mL | 0.05 µg/mL | 0.39 µg/mL | 0.05 µg/mL | 0.78 µg/mL | 0.1 µg/mL |  |  | CO/N=C(\C(=O)N[C@@H]1C(=O)N2C(C(=O)[O-])=C(C[n+]3cc4sccn4c3CNS(N)(=O)=O)CS[C@H]12)c1nsc(N)n1 [Ex. 5, (6R,7R)-7-[(Z)-2-(5-Amino-1,2,4-thiadiazol-3-yl)-2-(methoxyimino)acetamido]-3-[5-sulfamidomethylimidazo[5,1-b]thiazolium-6-yl]methyl-3-cephem-4-carboxylate (inner salt)] |
